Data published in patent US20200030388A1, “COMPOSITIONS FOR MODIFYING GUT MICROBIOTA” (priority 2017, published 2020).
Several values for one entry are separate records, joined by “and”; a condition that tells them apart may be missing. Equal values may be shown once. Marks after values point to notes of the source that are not given here.

Experiments:
[1] = test system: HFD-fed C57BL/6 male mice; experiment: Garcinol versus garcinol blend in HFD-fed C57BL/6 mice, 16 weeks (Example 3); type: in vivo, mouse
Procedure: The present invention studied the anti-obesity effects of garcinol compared to a composition comprising garcinol, pterostilbene and anthocyanin (garcinol blend (GB) in mammals. The study was conducted in vivo on 5 weeks old C57BL/6 male mice. A total of 42 mice were involved in this study with 6 groups of 7 mice each. The groups were divided as in table 8.
The high fat diet (HFD) groups were fed 45% high fat diet for 16 weeks for the induction of obesity and concurrently administered the test substance as indicated in the aforesaid table. The normal group was fed with normal diet for 16 weeks.
Body weight was monitored weekly, and the average body weight of each group (n=7) was expressed as the means±SE.

[2] = test system: HFD-induced Obesity in C57BL/6 mice; experiment: HFD-induced obesity in C57BL/6 mice, 13 weeks (Example 2); type: in vivo, mouse; conditions: for GPT / HDL / LDL / LDL/HDL / T-CHO / TG: plasma; for percentage frequency of adipocytes, Adipocyte Size area 2000 / percentage frequency of adipocytes, Adipocyte Size area 15000 / percentage frequency of adipocytes, Adipocyte Size area >350000: perigonadal adipose tissue
Excerpt: After one week of acclimation, animals were randomly distributed into normal diet (ND, 15% energy as fat), HFD (50% energy as fat), and HFD with 0.1% or 0.5% garcinol groups of eight mice in each group for 13 weeks. The experimental diets were modified from the Purina 5001 diet (LabDiet, PMI Nutrition International, St. Louis, Mo., USA). The animals had ad libitum access to food and water. Food cups were replenished with a fresh diet every day. […] Upon termination of the study, the animals were sacrificed by CO2 asphyxiation and dissected, and the weights of their whole bodies and selected tissues, including the liver, kidney, spleen, adipose tissues (perigonadal, retroperitoneal, and mesenteric fat) and serum were immediately collected, weighed, and photographed.
Sections of 3-5 μm in thickness were cut, deparaffinized, rehydrated, stained with H&E, and subjected to photomicroscopic assessment. Adipocyte size was determined using Image J software (Rasband, W. S., ImageJ, U.S. National Institutes of Health, Bethesda, Md., USA).
Blood samples were collected from the left ventricle under anesthesia. The samples were mixed in 10 μL of heparin sodium and centrifuged at 3500 rpm and 4° C. for 10 min. The plasma was then stored at −80° C. until use. Glutamic-pyruvic transaminase (GPT), total cholesterol (TC), TG, high-density lipoprotein (HDL), and low-density lipoprotein (LDL) levels were analyzed at the National Laboratory Animal Center, NLAC (Taipei, Taiwan) on a 7080 Biochemical Analyzer (Hitachi, Tokyo, Japan) according to the manufacturer's instructions.

[3] = test system: Mouse 3T3-L1 pre-adipocytes; experiment: Adipogenesis inhibition in 3T3-L1 cells, Oil red O staining; type: cell-based; conditions: 3T3-L1 adipocytes, read-out: inhibition of lipid accumulation
Procedure: Garcinol (20%) stock of 10 mg/ml was prepared in DMSO and filtered through 0.2 micron syringe filter. Stock was diluted 1000 times in DMEM to get 10 μg/ml final concentration and serially diluted. Insulin (Hi Media) was bought as a solution at a concentration of 20 mg/ml. This was diluted to 1 μg/ml in DMEM. IBMX-(Sigma)—Stock of 5 mM was prepared in DMEM, and diluted 10 times to be used at a final concentration of 0.5 mM. Dexamethasone (Sigma)—A stock of […] was prepared in DMEM and diluted 40 times to get a final concentration of 0.25 μM
Mouse 3T3-L1 pre-adipocytes were cultured in DMEM containing 25 mM glucose with 10% heat-inactivated fetal calf serum with antibiotics at 37° C. and 5% CO2. When the cells were 70-80% confluent, they were trypsinized, washed and seeded in 6 well plates at a density of 2×10^6 cells per well. Cells were induced to differentiate 2 d after reaching confluence (day 0), by supplementing DMEM media containing 10% Fetal Bovine Serum (FBS) along with 1 μg/mL insulin, 0.25 μM dexamethasone, 0.5 mM 1-methyl-3-isobutyl-xanthine (IBMX) and different concentrations of Garcinol (20%). From day 3 until day 7, cells were maintained in progression media supplemented with 1 μg/mL insulin and different concentrations of Garcinol (20%). […] Quantification for amount of triglycerides accumulated in adipocytes was done by Oil red O staining.

[4] = test system: High Fat Diet Induced Obesity in C57 Mice; experiment: High fat diet induced obesity in C57 mice, 16 weeks (Example 1); type: in vivo, mouse; conditions: for Change in weight / Final weight / Kidney weight / Pancreas Weight / Spleen Weight / Mesenteric Fat / Peri-gonadal Fat / Retroperitoneal Fat: HFD; for Change in weight / Final weight / Mesenteric Fat / Peri-gonadal Fat / Retroperitoneal Fat: 120 days
Procedure: C57/BL6 mice, 6-8 weeks of age and 8 animals/Group (4 Male and 4 Female) were used for the study. Animals were housed under standard laboratory conditions, air-conditioned with adequate fresh air supply (12-15 Air changes per hour), room temperature 20.2-23.5° C. and relative humidity 58-64% with 12 hours fluorescent light and 12 hours dark cycle. The temperature and relative humidity was recorded once daily.
The animals were fed with Normal diet (9 kcal/day) and High fat diet (50 kcal/day) throughout the acclimatization and experimental period.
The design of the study groups is depicted in table 2.
Body weight of the animals was recorded in all the days of experimental period. At the end of the experimental period, the animals were sacrificed by cervical dislocation. Blood was collected and Serum was separated by centrifugation and used for the analysis of biochemical parameters. The organs such as Liver Kidney, Spleen and Pancreas and Fat Tissues (Retroperitoneal, Peri-gonadal and Mesenteric) were dissected out and washed in phosphate buffered saline.
The following parameters were measured in the above groups: • Measurement of Body weight • Determination of Organ Weight • Estimation of Cholesterol (Zak et al., ([…]) A new method for the determination of serum cholesterol. J Clin Endocrinol Metab., 94(7), 2215-2220) • Estimation of Triglycerides (Foster L. B and Dunn R. T. (1973) Stable reagents for determination of serum triglycerides by a colorimetric Hantzsch condensation method. Clin Chem. 196, 338-340). • Estimation of HDL Cholesterol (Burstein et al., (1970). Determination of HDL cholesterol. J. lipid Res., 11, 583). • Determination of LDL and VLDL (Friedewald et al., (1972) Estimation of the concentration of Low Density Lipoprotein cholesterol in plasma without use of preparative centrifuge. J. Clin Chem.; 18:499).

[5] = test system: HFD-Induced Obese Mice (C57BL/6); experiment: GAR, FOR, LMIX, HMIX in HFD-induced obese mice, 12 weeks (Example 4)
Procedure: Four-week-old, male C57BL/6 mice were purchased from the BioLASCO Experimental Animal Center (Taiwan Co., Ltd., Taipei, Taiwan) and housed in a controlled atmosphere (25±1° C. at 50% relative humidity) with a 12 h light/12 h dark cycle. After 1 week of acclimation, animals were randomly distributed into 6 groups as follows: normal diet (ND, 15% energy from fat), high-fat diet (HFD, 50% energy from lard-based fat), and HFD supplemented with 0.01% garcinol (GAR group), 0.025% Forskolin (FOR group), 0.005% GAR+0.025% FOR (LMIX group), and 0.01% Gar+0.025% For (HMIX group) for 12 weeks. […] Animals had free access to food and water. Food consumption was monitored daily and the body weight was recorded weekly. At the end of the experiments, all animals were sacrificed by CO2 asphyxiation. Blood samples were collected from the heart for biochemical analysis. The liver, spleen, kidney, fat pads (perigonadal, retroperitoneal, and mesenteric fat), and fresh fecal pellets were immediately removed and stored at −80° C. until further analysis.
Liver and the perigonadal adipose tissue were dissected and fixed in 10% buffered formalin for at least 24 h, dehydrated with a sequence of ethanol solutions, and processed for embedding in paraffin. Sections of 4 μm in thickness were cut, deparaffinized, rehydrated, stained with hematoxylin and eosin (H&E), and subjected to photo microscopic observation. Adipocyte size was measured at 100× magnification and determined by Image J software (U. S. National Institutes of Health, Bethesda, Md., USA).

[6] = test system: Gut Microbiota in HFD-Fed Mice; experiment: Gut microbiota classification by next generation sequencing (Example 4); type: in vivo, mouse
Procedure: Total DNA was extracted from fresh fecal samples by using the innuPREP Stool DNA kit (Analytik Jena AG, Jena, Germany) according to the manufacturer's instructions. According to the concentration, DNA was diluted to 1 ng μ L^−1 using sterile water. 6SrRNA/18SrRNA/ITS genes of distinct region (16SV4/16SV3/16SV3-V4/16SV4-V5, 18S V4/18S V9, ITS1/ITS2, Arc V4) were amplified using a specific primer (e.g. 16SV4: 515F-806R, 18S V4: 528F-706R, and 18S V9: 1380F-1510R) with a barcode. All PCR reactions were carried out using a Phusion® High-Fidelity PCR master mix (New England Biolabs, Ipswich, Mass., USA). The PCR products were mixed in ratios of equal density. Then, the mixed PCR products were purified using a Qiagen gel extraction kit (Qiagen, Hilden, Germany). Sequencing libraries were generated using the TruSeq® DNA PCR-free sample preparation kit (Illumina, San Diego, Calif., USA) following the manufacturer's recommendations, and index codes were added. The library quality was assessed using the Qubit@ 2.0 Fluorometer (Thermo Scientific) and Agilent Bioanalyzer 2100 system. Lastly, the library was sequenced using an Illumina HiSeq 2500 platform, and 250 bp paired-end reads were generated. The classification was based on the Greengenes database (https://greengenes.lbl.gov/).

- GPT ([2]; HFD + 0.1% Gar): 20.5 ± 7.26^b U/L
- GPT ([2]; HFD + 0.5% Gar): 27.6 ± 3.72^ab U/L
- Kidney weight ([4]; Group III: garcinol 5 mg/kgbw): 0.49 ± 0.03 g wet tissue
- Pancreas Weight ([4]; Group III: garcinol 5 mg/kgbw): 0.23 ± 0.01 g wet tissue
- Spleen Weight ([4]; Group III: garcinol 5 mg/kgbw): 0.25 ± 0.02 g wet tissue
- Kidney weight ([4]; Group IV: garcinol 10 mg/kgbw): 0.42 ± 0.03 g wet tissue
- Pancreas Weight ([4]; Group IV: garcinol 10 mg/kgbw): 0.17 ± 0.01 g wet tissue
- Spleen Weight ([4]; Group IV: garcinol 10 mg/kgbw): 0.20 ± 0.01 g wet tissue
- Kidney weight ([4]; Group V: garcinol 20 mg/kgbw): 0.45 ± 0.06 g wet tissue
- Pancreas Weight ([4]; Group V: garcinol 20 mg/kgbw): 0.21 ± 0.02 g wet tissue
- Spleen Weight ([4]; Group V: garcinol 20 mg/kgbw): 0.22 ± 0.03 g wet tissue
- Kidney weight ([4]; Group VI: garcinol 40 mg/kgbw): 0.42 ± 0.04 g wet tissue
- Pancreas Weight ([4]; Group VI: garcinol 40 mg/kgbw): 0.22 ± 0.02 g wet tissue
- Spleen Weight ([4]; Group VI: garcinol 40 mg/kgbw): 0.23 ± 0.02 g wet tissue
- Kidney ([5]; organ weight): 0.4 ± 0.03^a g
- Spleen ([5]; organ weight): 0.06 ± 0.01^a g
Structure (SMILES): C=C(C)[C@@H](CC=C(C)C)C[C@@]12C[C@@H](CC=C(C)C)C(C)(C)[C@@](CC=C(C)C)(C(=O)C(C(=O)c3ccc(O)c(O)c3)=C1O)C2=O [garcinol]
- Final weight ([1]; HFD + 0.1% test substance): 32.1 ± 2.6^b g
- Weight gain ([1]; HFD + 0.1% test substance): 10.5 ± 2.1^b g
- Final weight ([1]; HFD + 0.5% test substance): 25.4 ± 0.8^b g
- Weight gain ([1]; HFD + 0.5% test substance): 3.9 ± 0.6^b g
- decrease of mesenteric fat weight compared to the HFD group ([2]; 0.5% garcinol, HFD, 13 weeks): 77.7%
- decrease of perigonadal fat weight compared to the HFD group ([2]; 0.5% garcinol, HFD, 13 weeks): 85.1%
- decrease of retroperitoneal fat weight compared to the HFD group ([2]; 0.5% garcinol, HFD, 13 weeks): 92.4%
- HDL ([2]; HFD + 0.1% Gar): 152.6 ± 9.73^a mg/dL
- LDL ([2]; HFD + 0.1% Gar): 33.3 ± 0.72^b mg/dL
- LDL/HDL ([2]; HFD + 0.1% Gar): 0.22 ± 0.02^b
- T-CHO ([2]; HFD + 0.1% Gar): 179.7 ± 11.85^b mg/dL
- TG ([2]; HFD + 0.1% Gar): 69.6 ± 19.90^ab mg/dL
- percentage frequency of adipocytes, Adipocyte Size area 2000 ([2]; HFD + 0.1% garcinol): 8.38 ± 5.3^b
- percentage frequency of adipocytes, Adipocyte Size area 15000 ([2]; HFD + 0.1% garcinol): 4.03 ± 1.0^a
- percentage frequency of adipocytes, Adipocyte Size area >350000 ([2]; HFD + 0.1% garcinol): 3.32 ± 1.5^b
- HDL ([2]; HFD + 0.5% Gar): 118.7 ± 13.22^b mg/dL
- LDL ([2]; HFD + 0.5% Gar): 24.9 ± 4.47^c mg/dL
- LDL/HDL ([2]; HFD + 0.5% Gar): 0.21 ± 0.03^b
- T-CHO ([2]; HFD + 0.5% Gar): 137.9 ± 11.78^c mg/dL
- TG ([2]; HFD + 0.5% Gar): 55.6 ± 4.95^b mg/dL
- percentage frequency of adipocytes, Adipocyte Size area 2000 ([2]; HFD + 0.5% garcinol): 19.2 ± 3.9^a
- percentage frequency of adipocytes, Adipocyte Size area 15000 ([2]; HFD + 0.5% garcinol): 1.36 ± 0.9^b
- percentage frequency of adipocytes, Adipocyte Size area >350000 ([2]; HFD + 0.5% garcinol): 0.00 ± 0.0^c
- inhibition at 5 µg/mL ([3]; 5 μg/ml): 47.8%
- inhibition at 10 µg/mL ([3]; 10 μg/ml): 47.2%
- Change in weight ([4]; G5: garcinol 5 mg/kgbw): 10.03 ± 2.25 g
- Final weight ([4]; G5: garcinol 5 mg/kgbw): 29.33 ± 1.47 g
- Change in weight ([4]; G10: garcinol 10 mg/kgbw): 10.25 ± 1.39 g
- Final weight ([4]; G10: garcinol 10 mg/kgbw): 28.25 ± 1.39 g
- Change in weight ([4]; G20: garcinol 20 mg/kgbw): 7.62 ± 2.18 g
- Final weight ([4]; G20: garcinol 20 mg/kgbw): 27.37 ± 1.88 g
- Change in weight ([4]; G40: garcinol 40 mg/kgbw): 6.28 ± 1.03 g
- Final weight ([4]; G40: garcinol 40 mg/kgbw): 26.00 ± 1.33 g
- Mesenteric Fat ([4]; Group III: garcinol 5 mg/kgbw): 0.63 ± 0.07 g wet tissue
- Peri-gonadal Fat ([4]; Group III: garcinol 5 mg/kgbw): 1.33 ± 0.32 g wet tissue
- Retroperitoneal Fat ([4]; Group III: garcinol 5 mg/kgbw): 0.45 ± 0.06 g wet tissue
- Mesenteric Fat ([4]; Group IV: garcinol 10 mg/kgbw): 0.56 ± 0.05 g wet tissue
- Peri-gonadal Fat ([4]; Group IV: garcinol 10 mg/kgbw): 1.17 ± 0.22 g wet tissue
- Retroperitoneal Fat ([4]; Group IV: garcinol 10 mg/kgbw): 0.43 ± 0.05 g wet tissue
- Mesenteric Fat ([4]; Group V: garcinol 20 mg/kgbw): 0.601 ± 0.08 g wet tissue
- Peri-gonadal Fat ([4]; Group V: garcinol 20 mg/kgbw): 1.35 ± 0.21 g wet tissue
- Retroperitoneal Fat ([4]; Group V: garcinol 20 mg/kgbw): 0.46 ± 0.06 g wet tissue
- Mesenteric Fat ([4]; Group VI: garcinol 40 mg/kgbw): 0.59 ± 0.05 g wet tissue
- Peri-gonadal Fat ([4]; Group VI: garcinol 40 mg/kgbw): 1.41 ± 0.14 g wet tissue
- Retroperitoneal Fat ([4]; Group VI: garcinol 40 mg/kgbw): 0.46 ± 0.04 g wet tissue
- weight of the organs (adverse effects) ([4]; kidney, spleen, pancreas, Table 5): did not adversely affect
- Weight gain ([5]; 0.01% GAR, 0.025% FOR, LMIX, HMIX): 12.7 ± 2.0^b g
- Final weight ([5]; 0.01% GAR, 0.025% FOR, LMIX, HMIX, listed as GAR): 34.4 g and 34.4 ± 2.6^b g
- Liver ([5]; organ weight): 1.6 ± 0.2^b g
- abundance of Firmicutes ([6]; 12 weeks (HFD group 43.0%)): 33.9%
- abundance of Bacteroidetes ([6]; 12 weeks (HFD group 50.2%)): 62.4%
- OTUs difference between ND and HFD groups (Venn diagram) ([6]; 12 weeks, FIG. 23A): 26 OTUs
